Patent US20150284347A1, “NEW BENZENE SULFONAMIDE THIAZOLE COMPOUNDS” (INSERM (INSTITUT NATIONAL DE LA SANTÉ ET DE LA RECHERCHE …, priority 2012, published 2015)

Columns and labels:
breast cells MCF7 = test: Trypan blue cell viability, MCF7; format: cell-based; details: 10 μM, MCF7, trypan blue exclusion, FIG. 1
Procedure: (§1) Cell viability was assessed by measuring the number of cells alive in samples of two different kind of prostate cells, respectively noted LNCAP and PC3, of breast cells noted MCF7, of colon cells noted HT29, of metastatic melanoma cell lines A375 and of melanoma cells from patients noted GIC. The measure of cell viability as performed by cell counting using the trypan blue exclusion method. Results were expressed as the percentage of cells alive relatively to the number of living cells in the presence of DMSO, which corresponds to the negative control associated to the 100% value. Cells were seeded in 6-well plates (60000 cells/well), depleted and incubated with compounds for the times indicated. Then cells were detached in the presence of 2000 of […] (Thermo) and 2 ml of RPMI 1640 Glutamax (Gibco) was added to the cell solution. 100 of this solution was stained for 1 minute with 100 of 0.4% trypan blue before counting with a Malassez chamber. The effect of compound on cell viability was studied on different types of cells. […] Cancer cells from prostate, breast, colon and melanoma A375 came from cell lines cultures. […] Results are expressed as percentage of cells alive relatively to the number of living cells in the presence of DMSO, which corresponds to the negative control associated to the 100% value. […]

colon cells HT29 = test: Trypan blue cell viability, HT29; format: cell-based; details: 10 μM, HT29, trypan blue exclusion, FIG. 1
Procedure: as §1

[1] = tested on: metastatic melanoma cell line A375; test: Trypan blue cell viability, A375; format: cell-based; details: 10 μM, A375, trypan blue exclusion, FIG. 1
[2] = tested on: melanoma cells from patients GIC; test: Trypan blue cell viability, patient melanoma cells GIC; format: cell-based, human; details: 10 μM, trypan blue exclusion, FIG. 1
Procedure: Cell viability was assessed by measuring the number of cells alive in samples of two different kind of prostate cells, respectively noted LNCAP and PC3, of breast cells noted MCF7, of colon cells noted HT29, of metastatic melanoma cell lines A375 and of melanoma cells from patients noted GIC. The measure of cell viability as performed by cell counting using the trypan blue exclusion method. Results were expressed as the percentage of cells alive relatively to the number of living cells in the presence of DMSO, which corresponds to the negative control associated to the 100% value. Patient melanoma cells were prepared from biopsy after digestion for 1-2 h with collagenase A (0.33 U/ml), dispase (0.85 U/ml) and Dnase I (144 U/ml) at 37° C. Large debris were removed by filtration through a […] cell strainer. Cells were seeded in 6-well plates (60000 cells/well), depleted and incubated with compounds for the times indicated. Then cells were detached in the presence of 2000 of […] (Thermo) and 2 ml of RPMI 1640 Glutamax (Gibco) was added to the cell solution. 100 of this solution was stained for 1 minute with 100 of 0.4% trypan blue before counting with a Malassez chamber. […] Results are expressed as percentage of cells alive relatively to the number of living cells in the presence of DMSO, which corresponds to the negative control associated to the 100% value. […]

normal human fibroblasts = test: Trypan blue cell viability, normal fibroblasts; format: cell-based; details: 10 μM, FIG. 2
Procedure: Primary cell cultures of human normal melanocytes were prepared from human foreskin. In order to determine the effect of compound HA15 on cell viability of melanocytes and fibroblasts, 10 μM of ciglitazone or 10 μM of HA15 were added to the cell samples. The measure of cell viability was performed in the same way as for FIG. 1. Results are expressed as the percentage of living cells relatively to the number of living cells in the presence of DMSO, as for FIG. 1. Normal human fibroblasts prepared from foreskins of newborns were grown under 5% CO2 at 37° C. in DMEM medium supplemented with 10% FCS and penicillin/streptomycin (100 U/ml/[…]). Cells were seeded in 6-well plates (60000 cells/well), depleted and incubated with compounds for the times indicated. Then cells were detached in the presence of 2000 of […] (Thermo) and 2 ml of RPMI 1640 Glutamax (Gibco) was added to the cell solution. 100 of this solution was stained for 1 minute with 100 of 0.4% trypan blue before counting with a Malassez chamber. The effect of compound HA15 on cell viability of melanocytes and fibroblasts was studied, as illustrated by FIG. 2. Primary cell cultures of human normal melanocytes were prepared from human foreskin. In order to determine the effect of compound HA15 on cell viability of melanocytes and fibroblasts, 10 μM of ciglitazone or 10 μM of HA15 were added to the cell samples. […]

## CC(=O)Nc1nc(-c2cccc(NS(=O)(=O)c3cccc4c(N(C)C)cccc34)c2)cs1 [HA15, N-(4-(3-(5-(dimethylamino)naphthalene-1-sulfonamido)phenyl)thiazol-2-yl)acetamide]
Breast cells MCF7
  cell viability (cells alive relative to DMSO): viability greatly reduced
Colon cells HT29
  cell viability (cells alive relative to DMSO): viability greatly reduced
[1]
  cell viability (cells alive relative to DMSO): viability greatly reduced
[2]
  cell viability (cells alive relative to DMSO): viability greatly reduced
Normal human fibroblasts
  cell viability of normal fibroblasts: not affected
